Source: PubChem BioAssay (NCI)
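A five-concentration, 48-hour dose response in 96-well plates underlies each endpoint, interpolated linearly between surrounding concentrations. The concentration for 50% growth inhibition is given as GI50. The concentration for full growth arrest is given as TGI.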

Tests used:
Assay in all cases: NCI-60 cell line screen, 48 h
HCT-116 colon = system: HCT-116 colon
IGROV1 ovarian = system: IGROV1 ovarian
HCC-2998 colon = system: HCC-2998 colon
SF-295 CNS = system: SF-295 CNS
RXF 393 renal = system: RXF 393 renal
CCRF-CEM leukemia = system: CCRF-CEM leukemia
UACC-257 melanoma = system: UACC-257 melanoma
TK-10 renal = system: TK-10 renal
MOLT-4 leukemia = system: MOLT-4 leukemia
SF-268 CNS = system: SF-268 CNS
PC-3 prostate = system: PC-3 prostate
NCI-H23 lung = system: NCI-H23 lung
MALME-3M melanoma = system: MALME-3M melanoma
OVCAR-4 ovarian = system: OVCAR-4 ovarian
SF-539 CNS = system: SF-539 CNS
OVCAR-5 ovarian = system: OVCAR-5 ovarian
HCT-15 colon = system: HCT-15 colon
ACHN renal = system: ACHN renal
HS 578T breast = system: HS 578T breast
OVCAR-3 ovarian = system: OVCAR-3 ovarian
SR leukemia = system: SR leukemia
RPMI-8226 leukemia = system: RPMI-8226 leukemia
NCI-H460 lung = system: NCI-H460 lung
NCI-H226 lung = system: NCI-H226 lung
SNB-19 CNS = system: SNB-19 CNS
K-562 leukemia = system: K-562 leukemia
DU-145 prostate = system: DU-145 prostate
MCF7 breast = system: MCF7 breast
NCI/ADR-RES ovarian = system: NCI/ADR-RES ovarian
SK-MEL-28 melanoma = system: SK-MEL-28 melanoma
M14 melanoma = system: M14 melanoma
NCI-H522 lung = system: NCI-H522 lung
A549 NSCLC = system: A549 NSCLC
COLO 205 colon = system: COLO 205 colon
OVCAR-8 ovarian = system: OVCAR-8 ovarian
SK-MEL-2 melanoma = system: SK-MEL-2 melanoma
MDA-MB-231 breast = system: MDA-MB-231 breast
786-0 renal = system: 786-0 renal
UO-31 renal = system: UO-31 renal
HL-60(TB) leukemia = system: HL-60(TB) leukemia
SN12C renal = system: SN12C renal
HOP-92 NSCLC = system: HOP-92 NSCLC
SK-MEL-5 melanoma = system: SK-MEL-5 melanoma
KM12 colon = system: KM12 colon
CAKI-1 renal = system: CAKI-1 renal
UACC-62 melanoma = system: UACC-62 melanoma
SK-OV-3 ovarian = system: SK-OV-3 ovarian
U251 CNS = system: U251 CNS
A498 renal = system: A498 renal
T-47D breast = system: T-47D breast
MDA-MB-435 = system: MDA-MB-435
SNB-75 CNS = system: SNB-75 CNS
HOP-62 NSCLC = system: HOP-62 NSCLC
SW-620 colon = system: SW-620 colon
EKVX NSCLC = system: EKVX NSCLC
HT29 colon = system: HT29 colon
LOX IMVI melanoma = system: LOX IMVI melanoma

Structure (SMILES): CN1CCN(C)C1c1ccc(C2N(C)CCN2C)cc1
- GI50 (HCT-116 colon): 17.8 µM
- TGI (HCT-116 colon): 38 µM
- GI50 (IGROV1 ovarian): > 100 µM
- TGI (IGROV1 ovarian): > 100 µM
- GI50 (HCC-2998 colon): 40.5 µM
- TGI (HCC-2998 colon): > 100 µM
- GI50 (SF-295 CNS): > 100 µM
- TGI (SF-295 CNS): > 100 µM
- GI50 (RXF 393 renal): > 100 µM
- TGI (RXF 393 renal): > 100 µM
- GI50 (CCRF-CEM leukemia): 29.8 µM
- TGI (CCRF-CEM leukemia): > 100 µM
- GI50 (UACC-257 melanoma): > 100 µM
- TGI (UACC-257 melanoma): > 100 µM
- GI50 (TK-10 renal): > 100 µM
- TGI (TK-10 renal): > 100 µM
- GI50 (MOLT-4 leukemia): 26.1 µM
- TGI (MOLT-4 leukemia): 62 µM
- GI50 (SF-268 CNS): 39.8 µM
- TGI (SF-268 CNS): > 100 µM
- GI50 (PC-3 prostate): > 100 µM
- TGI (PC-3 prostate): > 100 µM
- GI50 (NCI-H23 lung): 45.7 µM
- TGI (NCI-H23 lung): > 100 µM
- GI50 (MALME-3M melanoma): > 100 µM
- TGI (MALME-3M melanoma): > 100 µM
- GI50 (OVCAR-4 ovarian): 38.3 µM
- TGI (OVCAR-4 ovarian): > 100 µM
- GI50 (SF-539 CNS): 35.6 µM
- TGI (SF-539 CNS): > 100 µM
- GI50 (OVCAR-5 ovarian): 86.4 µM
- TGI (OVCAR-5 ovarian): > 100 µM
- GI50 (HCT-15 colon): 77.7 µM
- TGI (HCT-15 colon): > 100 µM
- GI50 (ACHN renal): 80 µM
- TGI (ACHN renal): > 100 µM
- GI50 (HS 578T breast): 64 µM
- TGI (HS 578T breast): > 100 µM
- GI50 (OVCAR-3 ovarian): 41.8 µM
- TGI (OVCAR-3 ovarian): > 100 µM
- GI50 (SR leukemia): 28.5 µM
- TGI (SR leukemia): > 100 µM
- GI50 (RPMI-8226 leukemia): 19.3 µM
- TGI (RPMI-8226 leukemia): 59.1 µM
- GI50 (NCI-H460 lung): > 100 µM
- TGI (NCI-H460 lung): > 100 µM
- GI50 (NCI-H226 lung): > 100 µM
- TGI (NCI-H226 lung): > 100 µM
- GI50 (SNB-19 CNS): 39.5 µM
- TGI (SNB-19 CNS): > 100 µM
- GI50 (K-562 leukemia): 38.5 µM
- TGI (K-562 leukemia): > 100 µM
- GI50 (DU-145 prostate): 30.2 µM
- TGI (DU-145 prostate): > 100 µM
- GI50 (MCF7 breast): 20.1 µM
- TGI (MCF7 breast): > 100 µM
- GI50 (NCI/ADR-RES ovarian): 90.1 µM
- TGI (NCI/ADR-RES ovarian): > 100 µM
- GI50 (SK-MEL-28 melanoma): 67.8 µM
- TGI (SK-MEL-28 melanoma): > 100 µM
- GI50 (M14 melanoma): 18.6 µM
- TGI (M14 melanoma): 58.2 µM
- GI50 (NCI-H522 lung): > 100 µM
- TGI (NCI-H522 lung): > 100 µM
- GI50 (A549 NSCLC): > 100 µM
- TGI (A549 NSCLC): > 100 µM
- GI50 (COLO 205 colon): 23 µM
- TGI (COLO 205 colon): 65.2 µM
- GI50 (OVCAR-8 ovarian): 38.4 µM
- TGI (OVCAR-8 ovarian): > 100 µM
- GI50 (SK-MEL-2 melanoma): > 100 µM
- TGI (SK-MEL-2 melanoma): > 100 µM
- GI50 (MDA-MB-231 breast): 18.3 µM
- TGI (MDA-MB-231 breast): 96.1 µM
- GI50 (786-0 renal): > 100 µM
- TGI (786-0 renal): > 100 µM
- GI50 (UO-31 renal): > 100 µM
- TGI (UO-31 renal): > 100 µM
- GI50 (HL-60(TB) leukemia): 37.7 µM
- TGI (HL-60(TB) leukemia): > 100 µM
- GI50 (SN12C renal): 31.4 µM
- TGI (SN12C renal): > 100 µM
- GI50 (HOP-92 NSCLC): > 100 µM
- TGI (HOP-92 NSCLC): > 100 µM
- GI50 (SK-MEL-5 melanoma): 24.4 µM
- TGI (SK-MEL-5 melanoma): 89.7 µM
- GI50 (KM12 colon): 46.5 µM
- TGI (KM12 colon): > 100 µM
- GI50 (CAKI-1 renal): > 100 µM
- TGI (CAKI-1 renal): > 100 µM
- GI50 (UACC-62 melanoma): 56.9 µM
- TGI (UACC-62 melanoma): > 100 µM
- GI50 (SK-OV-3 ovarian): > 100 µM
- TGI (SK-OV-3 ovarian): > 100 µM
- GI50 (U251 CNS): 39.7 µM
- TGI (U251 CNS): > 100 µM
- GI50 (A498 renal): 14.4 µM
- TGI (A498 renal): > 100 µM
- GI50 (T-47D breast): 20.4 µM
- TGI (T-47D breast): > 100 µM
- GI50 (MDA-MB-435): 34.5 µM
- TGI (MDA-MB-435): > 100 µM
- GI50 (SNB-75 CNS): > 100 µM
- TGI (SNB-75 CNS): > 100 µM
- GI50 (HOP-62 NSCLC): 82.8 µM
- TGI (HOP-62 NSCLC): > 100 µM
- GI50 (SW-620 colon): 25 µM
- TGI (SW-620 colon): > 100 µM
- GI50 (EKVX NSCLC): > 100 µM
- TGI (EKVX NSCLC): > 100 µM
- GI50 (HT29 colon): 21.2 µM
- TGI (HT29 colon): 56.4 µM
- GI50 (LOX IMVI melanoma): 31.3 µM
- TGI (LOX IMVI melanoma): > 100 µM
